Results as given in the NIST ThermoML archive (doi:10.1016/j.jct.2012.08.004).
Several values for one entry are separate records, joined by “and”; a condition that tells them apart may be missing. Equal values may be shown once.

Settings: Crystal, Calculated from knudsen effusion weight loss

O=c1cc[nH]c(=S)[nH]1 [2-thiouracil]
Settings	vapor or sublimation pressure
421.15 K	0.0001325 kPa and 0.000123 kPa and 0.0001236 kPa
423.21 K	0.0001553 kPa and 0.0001548 kPa and 0.0001474 kPa
425.22 K	0.0001891 kPa and 0.000178 kPa and 0.0001835 kPa
427.15 K	0.0002128 kPa and 0.0002092 kPa and 0.0002223 kPa
429.2 K	0.0002611 kPa and 0.0002488 kPa and 0.0002569 kPa
431.23 K	0.0003061 kPa and 0.0002978 kPa and 0.0003042 kPa
433.16 K	0.0003652 kPa and 0.0003584 kPa and 0.0003803 kPa
435.2 K	0.0004422 kPa and 0.0004176 kPa and 0.0004406 kPa
437.24 K	0.0005206 kPa and 0.0005016 kPa and 0.0005328 kPa
439.16 K	0.0005912 kPa and 0.0005684 kPa and 0.0006221 kPa
441.22 K	0.000693 kPa and 0.000706 kPa and 0.0006718 kPa
443.26 K	0.000834 kPa and 0.0008404 kPa and 0.0008041 kPa

Cc1c[nH]c(=S)[nH]c1=O [5-methyl-2-thiouracil]
Settings	vapor or sublimation pressure
413.15 K	0.0001771 kPa and 0.0001698 kPa
415.25 K	0.0002113 kPa and 0.000217 kPa and 0.0002102 kPa
417.15 K	0.0002538 kPa and 0.0002498 kPa
417.24 K	0.0002506 kPa
419.23 K	0.0003129 kPa and 0.0003018 kPa and 0.0003131 kPa
421.24 K	0.0003606 kPa and 0.0003744 kPa
423.16 K	0.0004363 kPa and 0.0004213 kPa and 0.0004419 kPa
425.2 K	0.0005302 kPa and 0.000505 kPa and 0.0005103 kPa
427.22 K	0.0006121 kPa and 0.000601 kPa and 0.0006259 kPa
429.15 K	0.0007317 kPa and 0.0007071 kPa and 0.0007522 kPa
431.22 K	0.0008692 kPa and 0.0008414 kPa and 0.000852 kPa
433.24 K	0.001032 kPa and 0.001018 kPa and 0.001053 kPa

Cc1cc(=O)[nH]c(=S)[nH]1 [6-methyl-2-thiouracil]
Settings	vapor or sublimation pressure
421.16 K	0.000106 kPa and 9.78e-05 kPa
423.15 K	0.0001239 kPa and 0.0001238 kPa and 0.0001199 kPa
425.17 K	0.000145 kPa and 0.000136 kPa and 0.0001411 kPa
427.16 K	0.0001623 kPa and 0.0001711 kPa and 0.0001818 kPa
429.17 K	0.0002135 kPa and 0.0002 kPa and 0.0002154 kPa
431.16 K	0.0002301 kPa and 0.0002471 kPa
431.19 K	0.0002525 kPa and 0.0002434 kPa and 0.0002473 kPa
433.2 K	0.0002894 kPa and 0.0002713 kPa and 0.0002913 kPa
435.22 K	0.0003418 kPa and 0.0003333 kPa and 0.0003423 kPa
437.17 K	0.0004046 kPa [middle of 5 runs]
439.2 K	0.0005278 kPa and 0.0004968 kPa and 0.0004799 kPa
439.22 K	0.0004689 kPa and 0.000478 kPa and 0.0004523 kPa
441.23 K	0.0005644 kPa [middle of 5 runs]
443.16 K	0.0006925 kPa and 0.0006452 kPa
443.17 K	0.0006889 kPa and 0.0006567 kPa
445.2 K	0.0007983 kPa and 0.0007787 kPa
445.21 K	0.000813 kPa and 0.0008056 kPa and 0.0007574 kPa
447.24 K	0.0009485 kPa [middle of 6 runs]
